# Results from ChEMBL document CHEMBL1201862, “PubChem BioAssay data set” (2004).
#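 How tested: cells in 96-well plates exposed to compound for 48 hours at five concentrations. GI50 is the concentration that inhibits growth by half.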 Calls of active or inactive are those of the source. Rule as the data show it: active = GI50 up to about 1.1 µM and inactive = higher.
# Experiments:
# Test in all cases: NCI anticancer screen, dose series, 48 h
# [1] = test system: M14
# [2] = test system: UACC-62
# [3] = test system: SF-268
# [4] = test system: MDA-MB-231
# [5] = test system: EKVX
# [6] = test system: SK-MEL-5
# [7] = test system: OVCAR-3
# [8] = test system: SNB-19
# [9] = test system: HOP-92
# [10] = test system: DMS-114
# [11] = test system: HCT-15
# [12] = test system: SK-OV-3
# [13] = test system: Malme-3M
# [14] = test system: NCI-H23
# [15] = test system: RXF 631
# [16] = test system: SF-295
# [17] = test system: OVCAR-4
# [18] = test system: DLD-1
# [19] = test system: IGROV-1
# [20] = test system: UO-31
# [21] = test system: SN12C
# [22] = test system: COLO 205
# [23] = test system: TK-10
# [24] = test system: A498
# [25] = test system: OVCAR-5
# [26] = test system: LOX IMVI
# [27] = test system: HL-60
# [28] = test system: KM-20L2
# [29] = test system: NCI-H460
# [30] = test system: SNB-75
# [31] = test system: KM12
# [32] = test system: M19-MEL
# [33] = test system: SF-539
# [34] = test system: ACHN
# [35] = test system: K562
# [36] = test system: CCRF-CEM
# [37] = test system: 786-0
# [38] = test system: UACC-257
# [39] = test system: NCI-H522
# [40] = test system: DU-145
# [41] = test system: A549
# [42] = test system: SW-620
# [43] = test system: HCT-116
# [44] = test system: DMS-273
# [45] = test system: HOP-62
# [46] = test system: HCC 2998
# [47] = test system: BT-549
# [48] = test system: MOLT-4
# [49] = test system: MDA-N
# [50] = test system: PC-3
# [51] = test system: RPMI-8226
# [52] = test system: SNB-78
# [53] = test system: NCI/ADR-RES
# [54] = test system: U-251
# [55] = test system: SK-MEL-28
# [56] = test system: HT-29
# [57] = test system: NCI-H226
# [58] = test system: RXF 393
# [59] = test system: CAKI-1
# [60] = test system: HOP-18
# [61] = test system: OVCAR-8
# [62] = test system: LXFL 529
# [63] = test system: SK-MEL-2
# [64] = test system: MDA-MB-435
# [65] = test system: SR
smiles,measurement,setting,value
CC(=O)O[C@H]1CCC2[C@@H]3CC[C@]4(C)CC(=O)C=C[C@]4(C)C3CC[C@@]21C (some centres undefined),GI50,[1],19.2 µM (inactive)
same,GI50,[2],15.7 µM (inactive)
same,GI50,[3],21.2 µM (inactive)
same,GI50,[4],31.8 µM (inactive)
same,GI50,[5],27.5 µM (inactive)
same,GI50,[6],14.8 µM (inactive)
same,GI50,[7],17.5 µM (inactive)
same,GI50,[8],51.3 µM (inactive)
same,GI50,[9],48.2 µM (inactive)
same,GI50,[10],11.3 µM (inactive)
same,GI50,[11],18.7 µM
same,GI50,[12],65.8 µM (inactive)
same,GI50,[13],19.4 µM (inactive)
same,GI50,[14],21.9 µM (inactive)
same,GI50,[15],> 50.9 µM (inactive)
same,GI50,[16],53.3 µM (inactive)
same,GI50,[17],16.9 µM (inactive)
same,GI50,[18],22.6 µM (inactive)
same,GI50,[19],23.8 µM (inactive)
same,GI50,[20],6.3 µM (inactive)
same,GI50,[21],24.2 µM (inactive)
same,GI50,[22],17.2 µM (inactive)
same,GI50,[23],54.7 µM (inactive)
same,GI50,[24],44.7 µM (inactive)
same,GI50,[25],> 80.5 µM (inactive)
same,GI50,[26],16.9 µM (inactive)
same,GI50,[27],20.4 µM (inactive)
same,GI50,[28],19.4 µM (inactive)
same,GI50,[29],17.5 µM (inactive)
same,GI50,[30],46 µM (inactive)
same,GI50,[31],20.6 µM (inactive)
same,GI50,[32],18.8 µM (inactive)
same,GI50,[33],17.7 µM (inactive)
same,GI50,[34],49 µM (inactive)
same,GI50,[35],20.2 µM (inactive)
same,GI50,[36],20.1 µM (inactive)
same,GI50,[37],34.4 µM (inactive)
same,GI50,[38],20.6 µM (inactive)
same,GI50,[39],24.6 µM (inactive)
same,GI50,[40],> 100 µM (inactive)
same,GI50,[41],18.3 µM (inactive)
same,GI50,[42],18.3 µM (inactive)
same,GI50,[43],16.8 µM (inactive)
same,GI50,[44],17.7 µM (inactive)
same,GI50,[45],50.6 µM (inactive)
same,GI50,[46],45.6 µM (inactive)
same,GI50,[47],16.4 µM (inactive)
same,GI50,[48],23.2 µM (inactive)
same,GI50,[49],26.4 µM (inactive)
same,GI50,[50],29.4 µM (inactive)
same,GI50,[51],23 µM (inactive)
same,GI50,[52],14.9 µM (inactive)
same,GI50,[53],22 µM (inactive)
same,GI50,[54],17.7 µM (inactive)
same,GI50,[55],18.5 µM (inactive)
same,GI50,[56],18.1 µM (inactive)
same,GI50,[57],25.2 µM (inactive)
same,GI50,[58],24.2 µM (inactive)
same,GI50,[59],83.4 µM (inactive)
same,GI50,[60],> 38.8 µM (inactive)
same,GI50,[61],17.3 µM (inactive)
same,GI50,[62],14.8 µM (inactive)
same,GI50,[63],20.8 µM (inactive)
same,GI50,[64],40.6 µM (inactive)
COc1ccc(-c2cc(-c3ccco3)c(C#N)c(=O)n2C2OC(OC(=O)c3ccccc3)C(OC(=O)c3ccccc3)C2OC(=O)c2ccccc2)cc1 (centres undefined),GI50,[1],> 100 µM (inactive)
same,GI50,[2],> 10 µM (inactive)
same,GI50,[3],> 10 µM (inactive)
same,GI50,[5],> 100 µM (inactive)
same,GI50,[6],> 100 µM (inactive)
same,GI50,[7],58.6 µM (inactive)
same,GI50,[8],62.5 µM (inactive)
same,GI50,[9],23.9 µM (inactive)
same,GI50,[10],> 100 µM (inactive)
same,GI50,[11],> 100 µM
same,GI50,[13],> 100 µM (inactive)
same,GI50,[14],> 100 µM (inactive)
same,GI50,[15],> 100 µM (inactive)
same,GI50,[16],50.2 µM (inactive)
same,GI50,[17],> 100 µM (inactive)
same,GI50,[18],> 100 µM (inactive)
same,GI50,[19],> 100 µM (inactive)
same,GI50,[20],46 µM (inactive)
same,GI50,[65],> 100 µM (inactive)
same,GI50,[21],> 100 µM (inactive)
same,GI50,[22],> 100 µM (inactive)
same,GI50,[23],13.6 µM (inactive)
same,GI50,[24],> 100 µM (inactive)
same,GI50,[25],> 100 µM (inactive)
same,GI50,[26],> 100 µM (inactive)
same,GI50,[28],> 100 µM (inactive)
same,GI50,[29],> 100 µM (inactive)
same,GI50,[30],72.1 µM (inactive)
same,GI50,[31],> 100 µM (inactive)
same,GI50,[32],> 100 µM (inactive)
same,GI50,[33],> 100 µM (inactive)
same,GI50,[34],> 100 µM (inactive)
same,GI50,[35],> 100 µM (inactive)
same,GI50,[36],> 100 µM (inactive)
same,GI50,[37],> 100 µM (inactive)
same,GI50,[38],> 100 µM (inactive)
same,GI50,[39],63.5 µM (inactive)
same,GI50,[42],> 100 µM (inactive)
same,GI50,[43],40.2 µM (inactive)
same,GI50,[44],63.4 µM (inactive)
same,GI50,[45],52.6 µM (inactive)
same,GI50,[46],> 100 µM (inactive)
same,GI50,[48],> 100 µM (inactive)
same,GI50,[51],> 100 µM (inactive)
same,GI50,[52],> 100 µM (inactive)
same,GI50,[54],33.1 µM (inactive)
same,GI50,[55],> 100 µM (inactive)
same,GI50,[56],> 100 µM (inactive)
same,GI50,[57],> 100 µM (inactive)
same,GI50,[58],14.4 µM (inactive)
same,GI50,[59],> 100 µM (inactive)
same,GI50,[60],> 100 µM (inactive)
same,GI50,[61],> 100 µM (inactive)
same,GI50,[62],> 100 µM (inactive)
same,GI50,[63],> 100 µM (inactive)
